# Measurements published in publication PMC5218480 (PLoS ONE, 2017).
# Tested on: MV-4-11 cells
# Assay: Gene expression microarray analysis (Affymetrix PrimeView) and GSEA
# Format: cell-based, human
# Set-up: RFU PODN (11730768_x_at) / Fold change /veh PODN (11730768_x_at) / RFU LINC00158 (11744669_a_at) / Fold change /veh LINC00158 (11744669_a_at) / RFU DUSP10 (11751237_a_at) / Fold change /veh DUSP10 (11751237_a_at) / RFU ID3 (11757404_x_at) / Fold change /veh ID3 (11757404_x_at) / RFU PLEKHG5 (11737974_s_at) / Fold change /veh PLEKHG5 (11737974_s_at) / RFU LRRC4B (11730491_at) / Fold change /veh LRRC4B (11730491_at) / RFU GIMAP4 (11747438_a_at) / Fold change /veh GIMAP4 (11747438_a_at) / RFU KRT8 (11758183_x_at) / Fold change /veh KRT8 (11758183_x_at) / RFU CNN1 (11734310_a_at) / Fold change /veh CNN1 (11734310_a_at) / RFU VPS37D (11726825_at) / Fold change /veh VPS37D (11726825_at) / RFU C10orf10 (11716522_x_at) / Fold change /veh C10orf10 (11716522_x_at) / RFU KIR2DL2 /// KIR2DL4 /// KIR2DL5A /// KIR2DL5B /// KIR2DS1 /// KIR2DS2 /// KIR2DS3 /// KIR2DS4 /// KIR3DL3 /// KIR3DL3 /// KIR3DS1 (11738374_at) / Fold change /veh KIR2DL2 /// KIR2DL4 /// KIR2DL5A /// KIR2DL5B /// KIR2DS1 /// KIR2DS2 /// KIR2DS3 /// KIR2DS4 /// KIR3DL3 /// KIR3DL3 /// KIR3DS1 (11738374_at) / RFU C1QL1 (11718748_at) / Fold change /veh C1QL1 (11718748_at) / RFU TMPRSS4 (11747572_a_at) / Fold change /veh TMPRSS4 (11747572_a_at) / RFU HAMP (11756126_x_at) / Fold change /veh HAMP (11756126_x_at) / RFU RNFT2 (11725882_a_at) / Fold change /veh RNFT2 (11725882_a_at) / RFU NR4A2 (11747474_a_at) / Fold change /veh NR4A2 (11747474_a_at) / RFU ABCC12 (11746883_a_at) / Fold change /veh ABCC12 (11746883_a_at) / RFU TMEM136 (11760407_x_at) / Fold change /veh TMEM136 (11760407_x_at) / RFU CLDN22 /// WWC2 (11732394_at) / Fold change /veh CLDN22 /// WWC2 (11732394_at) / RFU HLA-DPB1 (11760878_x_at) / Fold change /veh HLA-DPB1 (11760878_x_at) / RFU SPINT1 (11716480_a_at) / Fold change /veh SPINT1 (11716480_a_at) / RFU GAP43 (11754022_s_at) / Fold change /veh GAP43 (11754022_s_at) / RFU A4GNT (11735810_at) / Fold change /veh A4GNT (11735810_at) / RFU PRB3 (11715151_x_at) / Fold change /veh PRB3 (11715151_x_at) / RFU TUBB4B (11761932_at) / Fold change /veh TUBB4B (11761932_at) / RFU CAPN14 (11732068_a_at) / Fold change /veh CAPN14 (11732068_a_at) / RFU TMCC2 (11721928_a_at) / Fold change /veh TMCC2 (11721928_a_at) / RFU IRGQ (11745062_a_at) / Fold change /veh IRGQ (11745062_a_at) / RFU FAM174B (11720279_a_at) / Fold change /veh FAM174B (11720279_a_at) / RFU TMPRSS4 (11748680_a_at) / Fold change /veh TMPRSS4 (11748680_a_at) / RFU FAM212B (11763350_a_at) / Fold change /veh FAM212B (11763350_a_at) / RFU PLEKHG5 (11743358_a_at) / Fold change /veh PLEKHG5 (11743358_a_at) / RFU ZSCAN30 (11745921_a_at) / Fold change /veh ZSCAN30 (11745921_a_at) / RFU CMKLR1 (11741424_a_at) / Fold change /veh CMKLR1 (11741424_a_at) / RFU LOC101060620 /// MAPK8IP1 (11723275_at) / Fold change /veh LOC101060620 /// MAPK8IP1 (11723275_at) / RFU SPTSSB (11747773_x_at) / Fold change /veh SPTSSB (11747773_x_at) / RFU PRSS12 (11739890_at) / Fold change /veh PRSS12 (11739890_at) / RFU BIN1 (11741810_x_at) / Fold change /veh BIN1 (11741810_x_at) / RFU WNT11 (11732464_a_at) / Fold change /veh WNT11 (11732464_a_at) / RFU C10orf10 (11716521_a_at) / Fold change /veh C10orf10 (11716521_a_at) / RFU C5orf56 (11738089_at) / Fold change /veh C5orf56 (11738089_at) / RFU CYB561 (11721691_x_at) / Fold change /veh CYB561 (11721691_x_at) / RFU ANKRD19P (11752326_a_at) / Fold change /veh ANKRD19P (11752326_a_at) / RFU OR2T12 /// OR2T33 /// OR2T8 (11738714_s_at) / Fold change /veh OR2T12 /// OR2T33 /// OR2T8 (11738714_s_at) / RFU VCAN (11748164_a_at) / Fold change /veh VCAN (11748164_a_at) / RFU JSRP1 (11732532_at) / Fold change /veh JSRP1 (11732532_at) / RFU KRTAP10-11 (11738290_x_at) / Fold change /veh KRTAP10-11 (11738290_x_at) / RFU MYO3A (11730013_a_at) / Fold change /veh MYO3A (11730013_a_at) / RFU EBF3 (11725865_a_at) / Fold change /veh EBF3 (11725865_a_at) / RFU CAMK2N1 (11719241_x_at) / Fold change /veh CAMK2N1 (11719241_x_at) / RFU C5orf56 (11738088_a_at) / Fold change /veh C5orf56 (11738088_a_at) / RFU OLFML3 (11715873_a_at) / Fold change /veh OLFML3 (11715873_a_at) / RFU LOC100653217 /// NTM (11731650_a_at) / Fold change /veh LOC100653217 /// NTM (11731650_a_at) / RFU MAPK11 (11762145_a_at) / Fold change /veh MAPK11 (11762145_a_at) / RFU FIZ1 (11724087_x_at) / Fold change /veh FIZ1 (11724087_x_at) / RFU OASL (11726364_x_at) / Fold change /veh OASL (11726364_x_at) / RFU SOX15 (11748057_x_at) / Fold change /veh SOX15 (11748057_x_at) / RFU CD79A (11719716_a_at) / Fold change /veh CD79A (11719716_a_at) / RFU HIST1H1D (11736915_at) / Fold change /veh HIST1H1D (11736915_at) / RFU CASKIN2 (11723855_a_at) / Fold change /veh CASKIN2 (11723855_a_at) / RFU LOC730098 (11760151_x_at) / Fold change /veh LOC730098 (11760151_x_at) / RFU OR4N2 (11742367_at) / Fold change /veh OR4N2 (11742367_at) / RFU PRRT2 (11749266_a_at) / Fold change /veh PRRT2 (11749266_a_at) / RFU SNX32 (11753110_a_at) / Fold change /veh SNX32 (11753110_a_at) / RFU CDHR5 (11726645_a_at) / Fold change /veh CDHR5 (11726645_a_at) / RFU RCAN1 (11760418_a_at) / Fold change /veh RCAN1 (11760418_a_at) / RFU FAM167A (11723789_a_at) / Fold change /veh FAM167A (11723789_a_at) / RFU FAM26E (11764081_at) / Fold change /veh FAM26E (11764081_at) / RFU ISYNA1 (11749810_s_at) / Fold change /veh ISYNA1 (11749810_s_at) / RFU ACY1 (11761880_at) / Fold change /veh ACY1 (11761880_at) / RFU 11764098_at / Fold change /veh 11764098_at / RFU SAMD14 (11745864_x_at) / Fold change /veh SAMD14 (11745864_x_at) / RFU NPB (11741838_a_at) / Fold change /veh NPB (11741838_a_at) / RFU TMPRSS6 (11731388_a_at) / Fold change /veh TMPRSS6 (11731388_a_at) / RFU KRTAP10-2 (11738614_at) / Fold change /veh KRTAP10-2 (11738614_at) / RFU ARHGAP8 /// PRR5-ARHGAP8 (11727945_x_at) / Fold change /veh ARHGAP8 /// PRR5-ARHGAP8 (11727945_x_at) / RFU KRTAP5-7 /// NADSYN1 (11734609_at) / Fold change /veh KRTAP5-7 /// NADSYN1 (11734609_at) / RFU RASL12 (11751679_a_at) / Fold change /veh RASL12 (11751679_a_at) / RFU CDKN2B (11736163_a_at) / Fold change /veh CDKN2B (11736163_a_at) / RFU PRF1 (11729649_at) / Fold change /veh PRF1 (11729649_at) / RFU, ZNF638 /// ZNF638-IT1 / Fold change vs veh, ZNF638 /// ZNF638-IT1 / RFU, PANK3 / Fold change vs veh, PANK3 / RFU, SH3YL1 / Fold change vs veh, SH3YL1 / RFU, ZEB2 / Fold change vs veh, ZEB2 / RFU, NRIP1 / Fold change vs veh, NRIP1 / RFU, PTTG1IP / Fold change vs veh, PTTG1IP / RFU, CAPN2 / Fold change vs veh, CAPN2 / RFU, MED14 / Fold change vs veh, MED14 / RFU, SNORA58 / Fold change vs veh, SNORA58 / RFU, C1orf63 / Fold change vs veh, C1orf63 / RFU, LRRFIP1 / Fold change vs veh, LRRFIP1 / RFU, NDUFAF7 / Fold change vs veh, NDUFAF7 / RFU, SLC12A2 / Fold change vs veh, SLC12A2 / RFU, IBTK / Fold change vs veh, IBTK / RFU, ESF1 / Fold change vs veh, ESF1 / Fold change vs veh, TMEM50B / RFU, TAOK1 / Fold change vs veh, TAOK1 / RFU, ACBD3 / Fold change vs veh, ACBD3 / RFU, TMA16 / Fold change vs veh, TMA16 / RFU, RWDD3 / Fold change vs veh, RWDD3 / RFU, BCAT1 / Fold change vs veh, BCAT1 / RFU, EDEM3 / Fold change vs veh, EDEM3 / RFU, TMEM33 / Fold change vs veh, TMEM33 / RFU, WDR75 / Fold change vs veh, WDR75 / RFU, AHCTF1 / Fold change vs veh, AHCTF1 / RFU, TFRC / Fold change vs veh, TFRC / RFU, ZDHHC17 / Fold change vs veh, ZDHHC17 / RFU, NOM1 / Fold change vs veh, NOM1 / RFU, ARL8B / Fold change vs veh, ARL8B / RFU, ZBTB11 / Fold change vs veh, ZBTB11 / RFU, TAMM41 / Fold change vs veh, TAMM41 / RFU, KIAA1704 /// LOC100996395 / Fold change vs veh, KIAA1704 /// LOC100996395 / RFU, ING1 / Fold change vs veh, ING1 / RFU, TRMT61B / Fold change vs veh, TRMT61B / RFU, FUBP3 / Fold change vs veh, FUBP3 / RFU, TP53 / Fold change vs veh, TP53 / RFU, TNKS2 / Fold change vs veh, TNKS2 / RFU, ZFP14 / Fold change vs veh, ZFP14 / RFU, ACTR2 / Fold change vs veh, ACTR2 / RFU, PPP3R1 / Fold change vs veh, PPP3R1 / RFU, PIK3R1 / Fold change vs veh, PIK3R1 / RFU, HNRNPA1 / Fold change vs veh, HNRNPA1 / RFU, RNF170 / Fold change vs veh, RNF170 / RFU, ZNF28 / Fold change vs veh, ZNF28 / RFU, RNGTT / Fold change vs veh, RNGTT / RFU, OGT / Fold change vs veh, OGT / RFU, BRD1 / Fold change vs veh, BRD1 / RFU, MARS / Fold change vs veh, MARS / RFU, ZNF655 / Fold change vs veh, ZNF655 / RFU, FAHD1 / Fold change vs veh, FAHD1 / RFU, BDP1 / Fold change vs veh, BDP1 / RFU, LRRCC1 / Fold change vs veh, LRRCC1 / RFU, ARID1A / Fold change vs veh, ARID1A / RFU, ZNF146 / Fold change vs veh, ZNF146 / RFU, ZNF330 / Fold change vs veh, ZNF330 / RFU, GPN3 / Fold change vs veh, GPN3 / RFU, C9orf123 / Fold change vs veh, C9orf123 / RFU, N4BP2L2 / Fold change vs veh, N4BP2L2 / RFU, ARFIP1 / Fold change vs veh, ARFIP1 / RFU, FAM179B / Fold change vs veh, FAM179B / RFU, BCL10 / Fold change vs veh, BCL10 / RFU, UHRF1BP1L / Fold change vs veh, UHRF1BP1L / RFU, BET1 / Fold change vs veh, BET1 / RFU, CNOT2 / Fold change vs veh, CNOT2 / RFU, ZNF268 / Fold change vs veh, ZNF268 / Fold change vs veh, ZNF507 / RFU, DGCR2 / Fold change vs veh, DGCR2 / RFU, WDSUB1 / Fold change vs veh, WDSUB1 / Fold change vs veh, HSP90B1 /// MIR3652 / RFU, ADSS / Fold change vs veh, ADSS / RFU, GK / Fold change vs veh, GK / RFU, ZNF148 / Fold change vs veh, ZNF148 / RFU, TAF9 / Fold change vs veh, TAF9 / RFU, SLC1A5 / Fold change vs veh, SLC1A5 / RFU, SLMO2 / Fold change vs veh, SLMO2 / RFU, ABCC4 / Fold change vs veh, ABCC4 / RFU, LOC101060439 /// RAP1B / Fold change vs veh, LOC101060439 /// RAP1B / RFU, RFX7 / Fold change vs veh, RFX7 / RFU, GTPBP10 / Fold change vs veh, GTPBP10 / RFU, CNEP1R1 / Fold change vs veh, CNEP1R1 / RFU, BIVM-ERCC5 /// ERCC5 / Fold change vs veh, BIVM-ERCC5 /// ERCC5 / RFU, ILF3 / Fold change vs veh, ILF3 / RFU 11762660_at / Fold change /veh 11762660_at / RFU VCAN (11757783_s_at) / Fold change /veh VCAN (11757783_s_at) / RFU DDX43 (11728927_at) / Fold change /veh DDX43 (11728927_at) / RFU KRT8 (11758188_x_at) / Fold change /veh KRT8 (11758188_x_at) / RFU NKD1 (11759106_at) / Fold change /veh NKD1 (11759106_at) / RFU SRD5A1 (11742802_a_at) / Fold change /veh SRD5A1 (11742802_a_at) / RFU TPSAB1 /// TPSB2 (11721975_s_at) / Fold change /veh TPSAB1 /// TPSB2 (11721975_s_at) / RFU GSTM3 (11746129_a_at) / Fold change /veh GSTM3 (11746129_a_at) / RFU IL23R (11737362_x_at) / Fold change /veh IL23R (11737362_x_at) / RFU TMEM51 (11727254_a_at) / Fold change /veh TMEM51 (11727254_a_at) / RFU PIWIL2 (11732686_x_at) / Fold change /veh PIWIL2 (11732686_x_at) / RFU ORM1 (11744905_x_at) / Fold change /veh ORM1 (11744905_x_at) / RFU CCDC152 (11743942_at) / Fold change /veh CCDC152 (11743942_at) / RFU ECM1 (11717891_a_at) / Fold change /veh ECM1 (11717891_a_at) / RFU IL23R (11748794_a_at) / Fold change /veh IL23R (11748794_a_at) / RFU TNFAIP8L3 (11732012_x_at) / Fold change /veh TNFAIP8L3 (11732012_x_at) / RFU MBOAT4 (11741988_at) / Fold change /veh MBOAT4 (11741988_at) / RFU 11764193_at / Fold change /veh 11764193_at / RFU TMEM53 (11763286_at) / Fold change /veh TMEM53 (11763286_at) / RFU MAGEB2 (11727129_at) / Fold change /veh MAGEB2 (11727129_at) / RFU TMEM200A (11744735_a_at) / Fold change /veh TMEM200A (11744735_a_at) / RFU CCDC152 (11751479_a_at) / Fold change /veh CCDC152 (11751479_a_at) / RFU FAM211A (11726209_a_at) / Fold change /veh FAM211A (11726209_a_at) / RFU RGS16 (11746705_a_at) / Fold change /veh RGS16 (11746705_a_at) / RFU VCAN (11755009_s_at) / Fold change /veh VCAN (11755009_s_at) / RFU RHOB (11743442_s_at) / Fold change /veh RHOB (11743442_s_at) / RFU RGS16 (11720943_a_at) / Fold change /veh RGS16 (11720943_a_at) / RFU RGS16 (11720944_at) / Fold change /veh RGS16 (11720944_at) / RFU, VPS4B / Fold change vs veh, VPS4B / RFU, CREB1 / Fold change vs veh, CREB1 / RFU, DNAJC13 / Fold change vs veh, DNAJC13 / RFU, GNAQ / Fold change vs veh, GNAQ / RFU, CDK5R1 / Fold change vs veh, CDK5R1 / RFU, ZRANB3 / Fold change vs veh, ZRANB3 / RFU, CUL4A / Fold change vs veh, CUL4A / RFU, CCNY / Fold change vs veh, CCNY / RFU, UFL1 / Fold change vs veh, UFL1 / RFU, COG3 / Fold change vs veh, COG3 / RFU, DIAPH2 / Fold change vs veh, DIAPH2 / RFU, SKA2 / Fold change vs veh, SKA2 / RFU, AFF3 / Fold change vs veh, AFF3 / RFU, LMF1 / Fold change vs veh, LMF1 / RFU, IPO11 / Fold change vs veh, IPO11 / RFU, DFFB / Fold change vs veh, DFFB / RFU, FOXP1 / Fold change vs veh, FOXP1 / RFU, CARD8 / Fold change vs veh, CARD8 / RFU, STRN3 / Fold change vs veh, STRN3 / RFU, ADK / Fold change vs veh, ADK / RFU, RASSF2 / Fold change vs veh, RASSF2 / RFU, WIPF1 / Fold change vs veh, WIPF1 / RFU, LARP1B / Fold change vs veh, LARP1B / RFU, RASA1 / Fold change vs veh, RASA1 / RFU, RB1 / Fold change vs veh, RB1 / RFU, PPFIA1 / Fold change vs veh, PPFIA1 / RFU, MAT2A / Fold change vs veh, MAT2A / RFU, CCT5 / Fold change vs veh, CCT5 / RFU, WDR92 / Fold change vs veh, WDR92 / RFU, CUX1 / Fold change vs veh, CUX1 / RFU, TTC7A / Fold change vs veh, TTC7A / RFU, TMEM135 / Fold change vs veh, TMEM135 / RFU, DEPTOR / Fold change vs veh, DEPTOR / RFU, CPM / Fold change vs veh, CPM / RFU, DNAJB6 / Fold change vs veh, DNAJB6 / RFU, CACNA2D3 / Fold change vs veh, CACNA2D3 / RFU, DTX4 / Fold change vs veh, DTX4 / RFU, TFCP2 / Fold change vs veh, TFCP2 / RFU, GMCL1 /// GMCL1P1 / Fold change vs veh, GMCL1 /// GMCL1P1 / RFU, AEBP2 / Fold change vs veh, AEBP2 / RFU, SNHG1 /// SNORD22 /// SNORD25 /// SNORD26 /// SNORD27 /// SNORD28 /// SNORD29 /// SNORD31 / Fold change vs veh, SNHG1 /// SNORD22 /// SNORD25 /// SNORD26 /// SNORD27 /// SNORD28 /// SNORD29 /// SNORD31 / Fold change (Aza/veh), C12orf56 (ProbeSet 11735607_a_at) / Fold change (ACY-1035/veh), C12orf56 (ProbeSet 11735607_a_at) / Fold change (Aza/veh), FGFR1OP (ProbeSet 11751329_s_at) / Fold change (ACY-1035/veh), FGFR1OP (ProbeSet 11751329_s_at) / Fold change (Aza/veh), VPS36 (ProbeSet 11739960_a_at) / Fold change (ACY-1035/veh), VPS36 (ProbeSet 11739960_a_at) / RFU SYPL1 (11715823_x_at) / Fold change /veh SYPL1 (11715823_x_at) / RFU IGFBP7 (11715501_s_at) / Fold change /veh IGFBP7 (11715501_s_at) / RFU REEP3 (11722064_at) / Fold change /veh REEP3 (11722064_at) / RFU IGLL1 (11728026_x_at) / Fold change /veh IGLL1 (11728026_x_at): dose or concentration left out as unconfirmed
# Conditions: MV-4-11 cells, 48 hours
smiles,measurement,value
Nc1ccc(-c2cccs2)cc1NC(=O)c1ccc2c(c1)cc(C1CC1)n2CCN1CCOCC1 [ACY-1035],RFU TMPRSS6 (11731388_a_at),73.78 RFU
